Experimental findings from ChEMBL document CHEMBL1201862, “PubChem BioAssay data set” (2004) are described below.

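Dose response: 5 concentrations. Exposure: 48 h. Format: 96-well plates. Endpoint: linear interpolation; highest concentration if not reached. Abbreviation: GI50, concentration required for 50% inhibition of growth.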 The source made the active and inactive calls. No stated cut-off is given here; in the data, active = GI50 up to about 1.1 µM and inactive = higher.

Some test systems named below: A549; BT-549; DU-145; HL-60; HOP-62; HOP-92; KM12; M14; Malme-3M; NCI-H460; NCI-H522; OVCAR-4; OVCAR-8; RXF 393; SF-295; SF-539; SNB-19; SNB-75; SW-620; UO-31.
What all share (test): NCI-60 cell line screen, 48 h

Consider `C=C1COC(O)(C2OCOC(C3CC(=O)NC(=O)C3)C2O)C1C` (configuration not stated), for which the GI50 in the assay with A549 is 0.00221 µM (active); in the assay on BT-549 it was 0.00565 µM (active); in the assay with DU-145 it was 0.00361 µM (active); in the assay on HL-60, 0.00303 µM (active); in the assay on HOP-62, 0.00622 µM (active); in the assay with HOP-92, 0.00244 µM (active). The GI50 in the assay with KM12 is 0.00287 µM (active); with M14 it was 0.00442 µM (active); with Malme-3M, 0.00221 µM (active); with NCI-H460, 0.00413 µM (active); in the assay with NCI-H522, 0.000716 µM (active); in the assay on OVCAR-4 it was 0.00342 µM (active). Besides, the GI50 in the assay on OVCAR-8 is 0.00512 µM (active); with RXF 393 it was 0.00404 µM (active); with SF-295 it was 0.00305 µM (active); with SF-539 it was 0.00185 µM (active); in the assay on SNB-19, 0.00233 µM (active); in the assay on SNB-75, 0.00494 µM (active). Also, the GI50 was 0.0043 µM (active) in the assay with SW-620 and 0.00105 µM (active) in the assay on UO-31.

Regarding `Cn1c2ccccc2c2c(=O)[nH]c(=O)[nH]c21`, the GI50 in the assay with A549, in the assay on BT-549, in the assay with DU-145, with HL-60, in the assay on HOP-62 and in the assay on HOP-92 was > 100 µM (inactive) throughout. Also, the GI50 in the assay with KM12, in the assay with M14, with Malme-3M, with NCI-H522, in the assay on OVCAR-8 and in the assay on RXF 393 was > 100 µM (inactive) in each case. The GI50 is > 100 µM (inactive) in the assay with SF-295; > 100 µM (inactive) in the assay on SF-539; > 100 µM (inactive) in the assay on SNB-19; 82.4 µM (inactive) in the assay with SNB-75; > 100 µM (inactive) in the assay with SW-620; > 100 µM (inactive) with UO-31.

Turning to `CC(=O)CC(=O)N1CCOC1=O`, the GI50 in the assay with A549, with BT-549, in the assay with DU-145, in the assay with HL-60, in the assay with HOP-62 and in the assay on HOP-92 was > 10 µM (inactive) in each case. In addition, the GI50 with KM12, in the assay with M14, in the assay with Malme-3M, in the assay with NCI-H460, in the assay on OVCAR-4 and with OVCAR-8 was > 10 µM (inactive) each time. In addition, the GI50 in the assay on RXF 393 was > 10 µM (inactive); in the assay with SF-295 it was > 10 µM (inactive); in the assay with SF-539, > 10 µM (inactive); in the assay with SNB-19, > 10 µM (inactive); in the assay on SNB-75, 5.26 µM (inactive); in the assay on SW-620, > 10 µM (inactive). Moreover, in the assay on UO-31, the GI50 is > 10 µM (inactive).

With `COC(CNC(=O)C(C)NC(=O)CCc1ccccc1)OC` (configuration not stated), the GI50 with A549, with BT-549, with DU-145, in the assay on HL-60, in the assay with HOP-92 and with KM12 was > 100 µM (inactive) each time. Further, the GI50 in the assay on M14, in the assay with Malme-3M, in the assay on NCI-H460, in the assay with NCI-H522, with OVCAR-4 and with OVCAR-8 was > 100 µM (inactive) throughout. The GI50 in the assay with RXF 393, in the assay on SF-295, with SF-539, in the assay with SNB-19, in the assay with SNB-75 and with SW-620 was > 100 µM (inactive) in each case. In addition, the GI50 in the assay on UO-31 is > 100 µM (inactive).

Consider `N#CCCN(CCC#N)c1ccc(/C=N\c2ccc(F)cc2)cc1`, for which the GI50 with A549 is 43.1 µM (inactive); in the assay on BT-549 it was > 100 µM (inactive); in the assay on DU-145, > 100 µM (inactive); in the assay with HL-60, 6.46 µM (inactive); with HOP-62, 27.1 µM (inactive); with HOP-92 it was > 100 µM (inactive). The GI50 is 1.62 µM (inactive) in the assay on M14; > 84.3 µM (inactive) in the assay on Malme-3M; 7.01 µM (inactive) with NCI-H460; > 100 µM (inactive) with NCI-H522; > 49.1 µM (inactive) with OVCAR-4; > 100 µM (inactive) in the assay on OVCAR-8. Also, the GI50 in the assay on RXF 393 is > 57 µM (inactive); in the assay on SF-295 it was 12.3 µM (inactive); in the assay with SF-539, 15.2 µM (inactive); in the assay on SNB-19, > 100 µM (inactive); in the assay on SNB-75, 73.6 µM (inactive); with SW-620, 19.3 µM (inactive). For the same compound, the GI50 in the assay on UO-31 is 41.8 µM (inactive).

For `CCOC(=O)C(NC(=O)c1cccc(Cl)c1)(N1CCN(c2cc3c(cc2F)c(=O)c(C(=O)O)cn3C2CC2)CC1)C(F)(F)F` (configuration not stated), the GI50 in the assay on A549 was 15.2 µM (inactive); in the assay with BT-549, 18.9 µM (inactive); with DU-145, 25.4 µM (inactive); in the assay with HL-60 it was 2.67 µM (inactive); with HOP-62 it was 22.2 µM (inactive); in the assay with HOP-92, 16.3 µM (inactive). The GI50 with KM12 was 11.5 µM (inactive); with M14 it was 15.9 µM (inactive); with Malme-3M it was 18 µM (inactive); in the assay with NCI-H460 it was 16.7 µM (inactive); in the assay with OVCAR-4, 15.7 µM (inactive); in the assay on OVCAR-8, 17.5 µM (inactive). The GI50 is 17 µM (inactive) in the assay with RXF 393; 21.6 µM (inactive) with SF-295; 16.7 µM (inactive) in the assay on SF-539; 22.2 µM (inactive) in the assay on SNB-19; 20.2 µM (inactive) in the assay with SNB-75; 12.2 µM (inactive) in the assay on SW-620. For the same compound, in the assay on UO-31, the GI50 is 20.1 µM (inactive).

As for `COc1ccc(C2=Nn3c(nc4sc5c(c4c3=O)CCCC5)SC2)cc1`, the GI50 was > 100 µM (inactive) in the assay with A549; > 100 µM (inactive) with BT-549; > 100 µM (inactive) in the assay with DU-145; > 100 µM (inactive) with HL-60; 49.8 µM (inactive) with HOP-62; > 100 µM (inactive) with HOP-92. Besides, the GI50 in the assay on KM12, in the assay with Malme-3M, in the assay with NCI-H460, in the assay with NCI-H522, with OVCAR-4 and in the assay on OVCAR-8 was > 100 µM (inactive) each time. Also, the GI50 is > 100 µM (inactive) with RXF 393; > 100 µM (inactive) in the assay with SF-295; > 100 µM (inactive) with SF-539; > 10 µM (inactive) in the assay on SNB-75; > 100 µM (inactive) in the assay on SW-620; > 100 µM (inactive) with UO-31.

For `COc1nc(N)nc2c1n(C)c[n+]2C`, the GI50 with A549, in the assay with BT-549, with DU-145, with HL-60, in the assay on HOP-62 and in the assay with HOP-92 was > 100 µM (inactive) throughout. Also, the GI50 in the assay on KM12, in the assay on M14, in the assay on Malme-3M, in the assay on NCI-H460, with NCI-H522 and in the assay with OVCAR-8 was > 100 µM (inactive) each time. For the same compound, the GI50 in the assay with RXF 393, in the assay with SF-295, in the assay with SF-539, in the assay with SNB-19, in the assay on SNB-75 and with SW-620 was > 100 µM (inactive) throughout. In addition, the GI50 in the assay on UO-31 is > 100 µM (inactive).

Take `O=S(=O)(/N=S(/Nc1ccccc1)C(Cl)Cl)c1ccccc1` (configuration not stated): the GI50 with A549, in the assay with BT-549, in the assay on DU-145, in the assay with HL-60, in the assay with HOP-62 and with HOP-92 was > 100 µM (inactive) each time. Besides, the GI50 in the assay on KM12, with M14, in the assay on Malme-3M, in the assay on NCI-H460, in the assay on OVCAR-4 and with OVCAR-8 was > 100 µM (inactive) each time. Also, the GI50 in the assay on RXF 393, with SF-295, in the assay with SF-539, with SNB-19, in the assay with SNB-75 and with SW-620 was > 100 µM (inactive) throughout. In the assay with UO-31, the GI50 was > 100 µM (inactive).

Regarding `COC(=O)c1ccccc1/C=C1/Cc2cccc(C)c2C1=O`, the GI50 is > 100 µM (inactive) in the assay on A549; 93.8 µM (inactive) in the assay with BT-549; > 100 µM (inactive) in the assay with DU-145; > 100 µM (inactive) with HL-60; 31 µM (inactive) with HOP-62; 31.8 µM (inactive) in the assay on HOP-92. Besides, the GI50 in the assay with KM12, with Malme-3M, in the assay with NCI-H460, in the assay on NCI-H522, in the assay on OVCAR-4 and with OVCAR-8 was > 100 µM (inactive) in each case. The GI50 is 41.2 µM (inactive) in the assay on RXF 393; 42 µM (inactive) with SF-295; > 100 µM (inactive) in the assay on SF-539; 35.4 µM (inactive) in the assay on SNB-75; > 100 µM (inactive) in the assay with SW-620; > 100 µM (inactive) in the assay with UO-31.

With `O=c1ccc2[n+]([O-])c3ccc(O)cc3oc-2c1` [RESAZURIN], the GI50 is 4.31 µM (inactive) in the assay on A549; 10.7 µM (inactive) in the assay with BT-549; 15.9 µM (inactive) with DU-145; 23.1 µM (inactive) in the assay with HL-60; 18.7 µM (inactive) with HOP-62; > 75.2 µM (inactive) with HOP-92. For the same compound, the GI50 was 5.19 µM (inactive) in the assay with KM12; 7.83 µM (inactive) in the assay with M14; 4.02 µM (inactive) with Malme-3M; 12.3 µM (inactive) with NCI-H460; 12.1 µM (inactive) with NCI-H522; 23.4 µM (inactive) in the assay with OVCAR-4. Moreover, the GI50 was 15 µM (inactive) with OVCAR-8; 37 µM (inactive) in the assay with RXF 393; 7.41 µM (inactive) in the assay with SF-295; 15.9 µM (inactive) in the assay with SF-539; 3.45 µM (inactive) in the assay with SNB-75; 11.5 µM (inactive) in the assay on SW-620. Further, in the assay on UO-31, the GI50 was 1.93 µM (inactive).
